Measurements: ChEMBL document CHEMBL4118284, “Exploration of diphenylalkyloxadiazoles as novel cardiac myosin activator” (Bioorg Med Chem Lett, 2018)

Experiments:
Bos taurus [1] = organism: Bos taurus; experiment: Activation of actin-stimulated bovine cardiac myosin S1 fragment ATPase activity in sarcomere at 10 uM after 10 mins by spectrophotometric analysis relative to control
Oryctolagus cuniculus = organism: Oryctolagus cuniculus; experiment: Activation of actin-stimulated rabbit psoas skeletal muscle myosin S1 fragment ATPase activity at 100 uM after 10 mins by spectrophotometric analysis relative to control
Gallus gallus = organism: Gallus gallus; experiment: Activation of actin-stimulated chicken gizzard smooth muscle myosin S1 fragment ATPase activity at 100 uM after 10 mins by spectrophotometric analysis relative to control
Bos taurus [2] = organism: Bos taurus; experiment: Activation of actin-stimulated bovine cardiac myosin S1 fragment ATPase activity in sarcomere at 1 uM after 10 mins by spectrophotometric analysis relative to control
Bos taurus [3] = organism: Bos taurus; experiment: Activation of actin-stimulated bovine cardiac myosin S1 fragment ATPase activity in sarcomere at 5 uM after 10 mins by spectrophotometric analysis relative to control
[4] = Activation of actin-stimulated bovine cardiac myosin S1 fragment ATPase activity in sarcomere after 10 mins by spectrophotometric analysis; set-up: species or system Bos taurus

Compound	Activity (Bos taurus [1])	Activity (Oryctolagus cuniculus)	Activity (Gallus gallus)	Activity (Bos taurus [2])	Activity (Bos taurus [3])	EC50 [4]
c1ccc(CCCc2nnc(C3CCOCC3)o2)cc1	30.8%	–	–	–	–	–
c1ccc(CCCCc2nnc(-c3ccncc3)o2)cc1	8.6%	–	–	–	–	–
c1ccc(CCCCNc2nnc(-c3ccccc3)o2)cc1	32.8%	–	–	–	–	–
c1ccc(CCCNc2nnc(-c3ccncc3)o2)cc1	22.9%	–	–	–	–	–
c1ccc(CCCCc2nc(-c3ccccc3)no2)cc1	35.9%	–	–	–	–	–
c1ccc(CCCc2nnc(Cc3ccccc3)o2)cc1	62.9%	1.8%	-3.9%	33.5%	60.2%	3.06 µM
c1ccc(CCCc2nnc(CCC3CCCCC3)o2)cc1	58.9%	-2.7%	4.5%	30%	53.1%	3.48 µM
c1ccc(CCCc2nnc(-c3ccccc3)o2)cc1	59.2%	-2.5%	-3.7%	32.5%	55.2%	3.27 µM
c1ccc(CCCCc2nnc(C3CCOCC3)o2)cc1	11.2%	–	–	–	–	–
c1ccc(CCCc2nnc(CCc3ccccc3)o2)cc1	51%	-3.1%	4.1%	29.7%	45.3%	4.5 µM
c1ccc(CCCc2nc(Cc3ccccc3)no2)cc1	66.3%	3.3%	4.2%	34.1%	60.3%	3.02 µM
c1ccc(CCCc2nnc(CCCc3ccccc3)o2)cc1	2.5%	–	–	–	–	–
c1ccc(CCCc2nc(-c3ccccc3)no2)cc1	60.7%	-5.3%	-2.4%	31.9%	56.4%	3.18 µM
c1ccc(CCCc2nnc(-c3ccncc3)o2)cc1	15.9%	–	–	–	–	–

Second part, the compound after the results:

Activity (Bos taurus [1])	Activity (Oryctolagus cuniculus)	Activity (Gallus gallus)	Activity (Bos taurus [2])	Activity (Bos taurus [3])	EC50 [4]	Compound
37.3%	–	–	–	–	–	COc1ccc(-c2nnc(CCCc3ccccc3)o2)cc1
–	-54.1%	-37.3%	–	–	–	Cc1ccc2c(c1)C(=O)[C@]1(O)CCN(c3ccccc3)C1=N2
16.1%	–	–	–	–	–	COc1ccc(Cc2nnc(CCCc3ccccc3)o2)cc1OC
22.5%	–	–	–	–	–	NS(=O)(=O)c1ccc(-c2nnc(CCCc3ccccc3)o2)cc1
4.2%	–	–	–	–	–	Fc1ccc(Cc2nnc(CCCc3ccccc3)o2)cc1
11.9%	–	–	–	–	–	CN(C)S(=O)(=O)c1ccc(CCCc2nnc(-c3ccccc3)o2)cc1
33%	–	–	–	–	–	NS(=O)(=O)c1ccc(-c2nnc(NCCCc3ccccc3)o2)cc1
41.7%	–	–	–	–	–	COc1ccc(-c2nnc(NCCCc3ccccc3)o2)cc1OC
46.8%	–	–	–	–	–	COc1ccc(-c2noc(CCCc3ccccc3)n2)cc1OC
33.6%	–	–	–	–	–	CN(C)S(=O)(=O)c1ccc(CCc2nnc(CCCc3ccccc3)o2)cc1
35.2%	–	–	–	–	–	c1ccc(CCNc2nnc(-c3ccccc3)o2)cc1
56.5%	2.2%	-3.8%	31.2%	49.9%	3.35 µM	COC(=O)N1CCN(Cc2cccc(NC(=O)Nc3ccc(C)nc3)c2F)CC1 [OMECAMTIV MECARBIL]
37.2%	–	–	–	–	–	CN(C)S(=O)(=O)c1ccc(CCCc2nc(-c3ccccc3)no2)cc1
50.5%	1.9%	2.3%	28.4%	42.6%	5.25 µM	c1ccc(CCCNc2nnc(-c3ccccc3)o2)cc1
40.2%	–	–	–	–	–	COc1ccc(-c2nnc(CCCc3ccccc3)o2)cc1OC
18.4%	–	–	–	–	–	COc1ccc(Cc2noc(CCCc3ccccc3)n2)cc1OC
38.7%	–	–	–	–	–	COc1ccc(CCc2nnc(CCCc3ccccc3)o2)cc1OC
